Earlier results on two compounds are cited in US10864334B2, “Nasal delivery” (OptiNose AS, priority 2006, dated 2020).

Where two headings read alike, the source gives them in different places.

The conditions of series [1]: in vivo.
The conditions of series [2]: intranasal; aqueous spray versus nasal drops; systemic bio-availability.

Consider `NC(=O)CC[C@@H]1NC(=O)[C@H](Cc2ccccc2)NC(=O)[C@H](Cc2ccc(O)cc2)NC(=O)CCSSC[C@@H](C(=O)N2CCC[C@H]2C(=O)N[C@H](CCCN=C(N)N)C(=O)NCC(N)=O)NC(=O)[C@H](CC(N)=O)NC1=O` [desmopressin], for which the “bio-availability of the nasal spray formulation relative to the nasal drop formulation” value in series [1] is “two to three times higher”.
Regarding `CCC(=O)O[C@]1(C(=O)SCF)[C@H](C)C[C@H]2[C@@H]3C[C@H](F)C4=CC(=O)C=C[C@]4(C)[C@@]3(F)[C@@H](O)C[C@@]21C` [fluticasone propionate], the “bio-availability of the nasal spray formulation relative to the nasal drop formulation” value in series [2] is given as “about eight times higher”.
